Laboratory results reported in patent publication US20230077362A1 (CORTEVA AGRISCIENCE LLC, priority 2019, published 2023).

Key:
[1] = test system: Beet Armyworm (Spodoptera exigua) ("BAW"), second instar larvae; experiment: Bioassay on beet armyworm (BAW), 128-well diet tray assay; type: in vivo; conditions: Spodoptera exigua, read-out: BAW (Biological Results, rating)
In short: (§1)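 Read-out: percent larval mortality per well, averaged over 8 wells. Incubation 25° C., 14:10 L:D photoperiod, 5–7 days, trays sealed with clear adhesive cover.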

[2] = test system: Cabbage Looper (Trichoplusia ni) ("CL"), second instar larvae; experiment: Bioassay on cabbage looper (CL), 128-well diet tray assay; type: in vivo; conditions: Trichoplusia ni, read-out: CL (Biological Results, rating)
In short: as §1

## COc1ccc(C(C)C)c(N2C(=O)CS/C2=N\C(=O)Nc2ccc(-c3ncn(-c4ccc(C(F)(F)F)cn4)n3)cc2F)c1 [Compound J283, (Z)-1-(2-fluoro-4-(1-(5-(trifluoromethyl)pyridin-2-yl)-1H-1,2,4-triazol-3-yl)phenyl)-3-(3-(2-isopropyl-5-methoxyphenyl)-4-oxothiazolidin-2-ylidene)urea]
[1]
  pest or weed control at 50 µg/cm2: 50 to 100%
[2]
  pest or weed control at 50 µg/cm2: 50 to 100%

## Cc1ccc(C(C)C)c(N2C(=O)CS/C2=N\C(=O)Nc2ccc(-c3ncn(-c4ccc(C(F)(F)F)cn4)n3)cc2C)c1 [Compound J284, (Z)-1-(3-(2-Isopropyl-5-methylphenyl)-4-oxothiazolidin-2-ylidene)-3-(2-methyl-4-(1-(5-(trifluoromethyl)pyridin-2-yl)-1H-1,2,4-triazol-3-yl)phenyl)urea]
[1]
  pest or weed control at 50 µg/cm2: 50 to 100%
[2]
  pest or weed control at 50 µg/cm2: 50 to 100%

## Cc1cc(-c2ncn(-c3ccc(C(F)(F)F)cn3)n2)ccc1NC(=O)/N=C1\SCC(=O)N1c1cc(N(C)C)ccc1C(C)C [Compound J285, (Z)-1-(3-(5-(Dimethylamino)-2-isopropylphenyl)-4-oxothiazolidin-2-ylidene)-3-(2-methyl-4-(1-(5-(trifluoromethyl)pyridin-2-yl)-1H-1,2,4-triazol-3-yl)phenyl)urea]
[1]
  pest or weed control at 50 µg/cm2: 50 to 100%
[2]
  pest or weed control at 50 µg/cm2: 50 to 100%

## COC(C)c1ccc(C)cc1N1C(=O)CS/C1=N\C(=O)Nc1ccc(-c2ncn(-c3ccc(C(F)(F)F)cn3)n2)cc1C (stereo not drawn) [Compound J286, (Z)-1-(3-(2-(1-Methoxyethyl)-5-methylphenyl)-4-oxothiazolidin-2-ylidene)-3-(2-methyl-4-(1-(5-(trifluoromethyl)pyridin-2-yl)-1H-1,2,4-triazol-3-yl)phenyl)urea]
[1]
  pest or weed control at 50 µg/cm2: 50 to 100%
[2]
  pest or weed control at 50 µg/cm2: 50 to 100%

## CC(C)c1ccc(N(C)C)cc1N1C(=O)CS/C1=N\C(=O)Nc1ccc(-c2ncn(-c3ccc(C#N)cc3)n2)cc1F [Compound J290, (Z)-1-(4-(1-(4-Cyanophenyl)-1H-1,2,4-triazol-3-yl)-2-fluorophenyl)-3-(3-(5-(dimethylamino)-2-isopropylphenyl)-4-oxothiazolidin-2-ylidene)urea]
[1]
  pest or weed control at 50 µg/cm2: 50 to 100%
[2]
  pest or weed control at 50 µg/cm2: 50 to 100%

## COc1ccc(C(C)C)c(N2C(=O)CS/C2=N\C(=O)Nc2ccc(-c3ncn(-c4ccc(C(F)(F)F)cn4)n3)cc2C)c1 [Compound J292, (Z)-1-(3-(2-Isopropyl-5-methoxyphenyl)-4-oxothiazolidin-2-ylidene)-3-(2-methyl-4-(1-(5-(trifluoromethyl)pyridin-2-yl)-1H-1,2,4-triazol-3-yl)phenyl)urea]
[1]
  pest or weed control at 50 µg/cm2: 50 to 100%
[2]
  pest or weed control at 50 µg/cm2: 50 to 100%

## CCCc1ccc(C)cc1N1C(=O)CS/C1=N\C(=O)Nc1ccc(-c2ncn(-c3ccc(C(F)(F)F)cn3)n2)cc1C [Compound J293, (Z)-1-(3-(5-Methyl-2-propylphenyl)-4-oxothiazolidin-2-ylidene)-3-(2-methyl-4-(1-(5-(trifluoromethyl)pyridin-2-yl)-1H-1,2,4-triazol-3-yl)phenyl)urea]
[1]
  pest or weed control at 50 µg/cm2: 50 to 100%
[2]
  pest or weed control at 50 µg/cm2: 50 to 100%

## CCCc1ccc(N(C)C)cc1N1C(=O)CS/C1=N\C(=O)Nc1ccc(-c2ncn(-c3ccc(C(F)(F)F)cn3)n2)cc1C [Compound J294, (Z)-1-(3-(5-(Dimethylamino)-2-propylphenyl)-4-oxothiazolidin-2-ylidene)-3-(2-methyl-4-(1-(5-(trifluoromethyl)pyridin-2-yl)-1H-1,2,4-triazol-3-yl)phenyl)urea]
[1]
  pest or weed control at 50 µg/cm2: 50 to 100%
[2]
  pest or weed control at 50 µg/cm2: 50 to 100%

## Cc1ccc(C(C)C)c(N2C(=O)CS/C2=N\C(=O)Nc2ccc(-c3ncn(-c4ccc(C(F)(F)F)cn4)n3)cc2Cl)c1 [Compound J295, (Z)-1-(2-Chloro-4-(1-(5-(trifluoromethyl)pyridin-2-yl)-1H-1,2,4-triazol-3-yl)phenyl)-3-(3-(2-isopropyl-5-methylphenyl)-4-oxothiazolidin-2-ylidene)urea]
[1]
  pest or weed control at 50 µg/cm2: 50 to 100%
[2]
  pest or weed control at 50 µg/cm2: 50 to 100%
